From the supplement of paper PMC11208160

Assay: recombinant barcode read abundance after kanamycin selection (control-corrected) (log10(CPM+1)); higher = more efficient recombination; sequences stand for … in AGTGCAGAGAAAATCGGCCAGTTTTCTCTGCCTGCAGTCCGCATGCCGT…ATTTATGCAGCGGACTGCCTTTCTCCCAAAGTGATAAACCGGACAGTATCATGGACCGGTTTTCCCGGTAATCCGTATTTGCAAGGTTGGTTTCACT; site = the 11-nt target
How it was run: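 Two replicates per condition were plated: chloramphenicol/ampicillin LB agar for the control, and chloramphenicol/ampicillin/kanamycin with 0.1 mM IPTG for selection. The pooled E. coli screen behind them paired targets with IS621 bridge RNA target-binding loops. Recombination efficiency is expressed from averaged, control-corrected barcode counts per million at recombinant junctions, as log10(CPM+1).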

Sequence	recombinant barcode read abundance (log10)
TCGCGACTCTGGGTTCTAACCTGTTGCCGGA [TCGCGACCTCG_LTGcore_TC_RTGcore_TC] (site TCGCGACCTCG) (LTG core: TC, RTG core: TC)	0.0969
TCGCGACTTTGGGTTCTAACCTGTTGCCGAA [TCGCGACCTCG_LTGcore_TT_RTGcore_TT] (site TCGCGACCTCG) (LTG core: TT, RTG core: TT)	0
TCTACCCAATGGGTTCTAACCTGTTGCTGAG [TCTACCCCTCA_LTGcore_AA_RTGcore_CT] (site TCTACCCCTCA) (LTG core: AA, RTG core: CT)	0.0508
TCTACCCACTGGGTTCTAACCTGTTGCTGAG [TCTACCCCTCA_LTGcore_AC_RTGcore_CT] (site TCTACCCCTCA) (LTG core: AC, RTG core: CT)	0.0555
TCTACCCAGTGGGTTCTAACCTGTTGCTGAG [TCTACCCCTCA_LTGcore_AG_RTGcore_CT] (site TCTACCCCTCA) (LTG core: AG, RTG core: CT)	0.467
TCTACCCCATGGGTTCTAACCTGTTGCTGAG [TCTACCCCTCA_LTGcore_CA_RTGcore_CT] (site TCTACCCCTCA) (LTG core: CA, RTG core: CT)	0.806
TCTACCCCTTGGGTTCTAACCTGTTGCTGCC [TCTACCCCTCA_LTGcore_CT_RTGcore_GG] (site TCTACCCCTCA) (LTG core: CT, RTG core: GG)	0.0951
TCTACCCGATGGGTTCTAACCTGTTGCTGAG [TCTACCCCTCA_LTGcore_GA_RTGcore_CT] (site TCTACCCCTCA) (LTG core: GA, RTG core: CT)	0.208
TCTACCCGGTGGGTTCTAACCTGTTGCTGCC [TCTACCCCTCA_LTGcore_GG_RTGcore_GG] (site TCTACCCCTCA) (LTG core: GG, RTG core: GG)	0.108
TCTACCCTCTGGGTTCTAACCTGTTGCTGAG [TCTACCCCTCA_LTGcore_TC_RTGcore_CT] (site TCTACCCCTCA) (LTG core: TC, RTG core: CT)	0.0968
TCTACCCTCTGGGTTCTAACCTGTTGCTGGA [TCTACCCCTCA_LTGcore_TC_RTGcore_TC] (site TCTACCCCTCA) (LTG core: TC, RTG core: TC)	0.032
TGATACCACTGGGTTCTAACCTGTTGCGTGT [TGATACCCTAC_LTGcore_AC_RTGcore_AC] (site TGATACCCTAC) (LTG core: AC, RTG core: AC)	0.136
TGATACCCATGGGTTCTAACCTGTTGCGTAG [TGATACCCTAC_LTGcore_CA_RTGcore_CT] (site TGATACCCTAC) (LTG core: CA, RTG core: CT)	0.328
TGATACCCCTGGGTTCTAACCTGTTGCGTAG [TGATACCCTAC_LTGcore_CC_RTGcore_CT] (site TGATACCCTAC) (LTG core: CC, RTG core: CT)	0.566
TGATACCCTTGGGTTCTAACCTGTTGCGTAA [TGATACCCTAC_LTGcore_CT_RTGcore_TT] (site TGATACCCTAC) (LTG core: CT, RTG core: TT)	0.882
TGATACCCTTGGGTTCTAACCTGTTGCGTAT [TGATACCCTAC_LTGcore_CT_RTGcore_AT] (site TGATACCCTAC) (LTG core: CT, RTG core: AT)	0.624
TGATACCTATGGGTTCTAACCTGTTGCGTAG [TGATACCCTAC_LTGcore_TA_RTGcore_CT] (site TGATACCCTAC) (LTG core: TA, RTG core: CT)	0.0864
TGATACCTATGGGTTCTAACCTGTTGCGTTA [TGATACCCTAC_LTGcore_TA_RTGcore_TA] (site TGATACCCTAC) (LTG core: TA, RTG core: TA)	0.0463

Sequence	recombinant barcode read abundance (log10)
TGATACCTCTGGGTTCTAACCTGTTGCGTGA [TGATACCCTAC_LTGcore_TC_RTGcore_TC] (site TGATACCCTAC) (LTG core: TC, RTG core: TC)	0.0566
TGATACCTTTGGGTTCTAACCTGTTGCGTAA [TGATACCCTAC_LTGcore_TT_RTGcore_TT] (site TGATACCCTAC) (LTG core: TT, RTG core: TT)	0.0482
TGTATTCAATGGGTTCTAACCTGTTGCCTAG [TGTATTCCTAG_LTGcore_AA_RTGcore_CT] (site TGTATTCCTAG) (LTG core: AA, RTG core: CT)	0.0633
TGTATTCAATGGGTTCTAACCTGTTGCCTTT [TGTATTCCTAG_LTGcore_AA_RTGcore_AA] (site TGTATTCCTAG) (LTG core: AA, RTG core: AA)	0.0627
TGTATTCCCTGGGTTCTAACCTGTTGCCTAG [TGTATTCCTAG_LTGcore_CC_RTGcore_CT] (site TGTATTCCTAG) (LTG core: CC, RTG core: CT)	0.168
TGTATTCCTTGGGTTCTAACCTGTTGCCTCG [TGTATTCCTAG_LTGcore_CT_RTGcore_CG] (site TGTATTCCTAG) (LTG core: CT, RTG core: CG)	0.161
TGTATTCCTTGGGTTCTAACCTGTTGCCTGA [TGTATTCCTAG_LTGcore_CT_RTGcore_TC] (site TGTATTCCTAG) (LTG core: CT, RTG core: TC)	0.0266
TGTATTCCTTGGGTTCTAACCTGTTGCCTTC [TGTATTCCTAG_LTGcore_CT_RTGcore_GA] (site TGTATTCCTAG) (LTG core: CT, RTG core: GA)	0.0942
TGTATTCGCTGGGTTCTAACCTGTTGCCTGC [TGTATTCCTAG_LTGcore_GC_RTGcore_GC] (site TGTATTCCTAG) (LTG core: GC, RTG core: GC)	0.312
TGTATTCTGTGGGTTCTAACCTGTTGCCTCA [TGTATTCCTAG_LTGcore_TG_RTGcore_TG] (site TGTATTCCTAG) (LTG core: TG, RTG core: TG)	0.205
TTATAAAAGTGGGTTCTAACCTGTTGCCTAG [TTATAAACTAG_LTGcore_AG_RTGcore_CT] (site TTATAAACTAG) (LTG core: AG, RTG core: CT)	0.0357
TTATAAACATGGGTTCTAACCTGTTGCCTAG [TTATAAACTAG_LTGcore_CA_RTGcore_CT] (site TTATAAACTAG) (LTG core: CA, RTG core: CT)	0.314
TTATAAACGTGGGTTCTAACCTGTTGCCTAG [TTATAAACTAG_LTGcore_CG_RTGcore_CT] (site TTATAAACTAG) (LTG core: CG, RTG core: CT)	0.111
TTATAAACTTGGGTTCTAACCTGTTGCCTAA [TTATAAACTAG_LTGcore_CT_RTGcore_TT] (site TTATAAACTAG) (LTG core: CT, RTG core: TT)	0.0141
TTATAAAGATGGGTTCTAACCTGTTGCCTAG [TTATAAACTAG_LTGcore_GA_RTGcore_CT] (site TTATAAACTAG) (LTG core: GA, RTG core: CT)	0.0604
TTATAAAGTTGGGTTCTAACCTGTTGCCTAC [TTATAAACTAG_LTGcore_GT_RTGcore_GT] (site TTATAAACTAG) (LTG core: GT, RTG core: GT)	0.0636
TTATAAATGTGGGTTCTAACCTGTTGCCTCA [TTATAAACTAG_LTGcore_TG_RTGcore_TG] (site TTATAAACTAG) (LTG core: TG, RTG core: TG)	0.0981
